Laboratory results reported in paper PMC5218480 (PLoS ONE, 2017).

Test system: MV-4-11 cells
Experiment: Gene expression microarray analysis (Affymetrix PrimeView) and GSEA
Type: cell-based, human
Design: RFU PODN (11730768_x_at) / Fold change /veh PODN (11730768_x_at) / RFU LINC00158 (11744669_a_at) / Fold change /veh LINC00158 (11744669_a_at) / RFU DUSP10 (11751237_a_at) / Fold change /veh DUSP10 (11751237_a_at) / RFU ID3 (11757404_x_at) / Fold change /veh ID3 (11757404_x_at) / RFU PLEKHG5 (11737974_s_at) / Fold change /veh PLEKHG5 (11737974_s_at) / RFU LRRC4B (11730491_at) / Fold change /veh LRRC4B (11730491_at) / RFU GIMAP4 (11747438_a_at) / Fold change /veh GIMAP4 (11747438_a_at) / RFU KRT8 (11758183_x_at) / Fold change /veh KRT8 (11758183_x_at) / RFU CNN1 (11734310_a_at) / Fold change /veh CNN1 (11734310_a_at) / RFU VPS37D (11726825_at) / Fold change /veh VPS37D (11726825_at) / RFU C10orf10 (11716522_x_at) / Fold change /veh C10orf10 (11716522_x_at) / RFU KIR2DL2 /// KIR2DL4 /// KIR2DL5A /// KIR2DL5B /// KIR2DS1 /// KIR2DS2 /// KIR2DS3 /// KIR2DS4 /// KIR3DL3 /// KIR3DL3 /// KIR3DS1 (11738374_at) / Fold change /veh KIR2DL2 /// KIR2DL4 /// KIR2DL5A /// KIR2DL5B /// KIR2DS1 /// KIR2DS2 /// KIR2DS3 /// KIR2DS4 /// KIR3DL3 /// KIR3DL3 /// KIR3DS1 (11738374_at) / RFU C1QL1 (11718748_at) / Fold change /veh C1QL1 (11718748_at) / RFU TMPRSS4 (11747572_a_at) / Fold change /veh TMPRSS4 (11747572_a_at) / RFU HAMP (11756126_x_at) / Fold change /veh HAMP (11756126_x_at) / RFU RNFT2 (11725882_a_at) / Fold change /veh RNFT2 (11725882_a_at) / RFU NR4A2 (11747474_a_at) / Fold change /veh NR4A2 (11747474_a_at) / RFU ABCC12 (11746883_a_at) / Fold change /veh ABCC12 (11746883_a_at) / RFU TMEM136 (11760407_x_at) / Fold change /veh TMEM136 (11760407_x_at) / RFU CLDN22 /// WWC2 (11732394_at) / Fold change /veh CLDN22 /// WWC2 (11732394_at) / RFU HLA-DPB1 (11760878_x_at) / Fold change /veh HLA-DPB1 (11760878_x_at) / RFU SPINT1 (11716480_a_at) / Fold change /veh SPINT1 (11716480_a_at) / RFU GAP43 (11754022_s_at) / Fold change /veh GAP43 (11754022_s_at) / RFU A4GNT (11735810_at) / Fold change /veh A4GNT (11735810_at) / RFU PRB3 (11715151_x_at) / Fold change /veh PRB3 (11715151_x_at) / RFU TUBB4B (11761932_at) / Fold change /veh TUBB4B (11761932_at) / RFU CAPN14 (11732068_a_at) / Fold change /veh CAPN14 (11732068_a_at) / RFU TMCC2 (11721928_a_at) / Fold change /veh TMCC2 (11721928_a_at) / RFU IRGQ (11745062_a_at) / Fold change /veh IRGQ (11745062_a_at) / RFU FAM174B (11720279_a_at) / Fold change /veh FAM174B (11720279_a_at) / RFU TMPRSS4 (11748680_a_at) / Fold change /veh TMPRSS4 (11748680_a_at) / RFU FAM212B (11763350_a_at) / Fold change /veh FAM212B (11763350_a_at) / RFU PLEKHG5 (11743358_a_at) / Fold change /veh PLEKHG5 (11743358_a_at) / RFU ZSCAN30 (11745921_a_at) / Fold change /veh ZSCAN30 (11745921_a_at) / RFU CMKLR1 (11741424_a_at) / Fold change /veh CMKLR1 (11741424_a_at) / RFU LOC101060620 /// MAPK8IP1 (11723275_at) / Fold change /veh LOC101060620 /// MAPK8IP1 (11723275_at) / RFU SPTSSB (11747773_x_at) / Fold change /veh SPTSSB (11747773_x_at) / RFU PRSS12 (11739890_at) / Fold change /veh PRSS12 (11739890_at) / RFU BIN1 (11741810_x_at) / Fold change /veh BIN1 (11741810_x_at) / RFU WNT11 (11732464_a_at) / Fold change /veh WNT11 (11732464_a_at) / RFU C10orf10 (11716521_a_at) / Fold change /veh C10orf10 (11716521_a_at) / RFU C5orf56 (11738089_at) / Fold change /veh C5orf56 (11738089_at) / RFU CYB561 (11721691_x_at) / Fold change /veh CYB561 (11721691_x_at) / RFU ANKRD19P (11752326_a_at) / Fold change /veh ANKRD19P (11752326_a_at) / RFU OR2T12 /// OR2T33 /// OR2T8 (11738714_s_at) / Fold change /veh OR2T12 /// OR2T33 /// OR2T8 (11738714_s_at) / RFU VCAN (11748164_a_at) / Fold change /veh VCAN (11748164_a_at) / RFU JSRP1 (11732532_at) / Fold change /veh JSRP1 (11732532_at) / RFU KRTAP10-11 (11738290_x_at) / Fold change /veh KRTAP10-11 (11738290_x_at) / RFU MYO3A (11730013_a_at) / Fold change /veh MYO3A (11730013_a_at) / RFU EBF3 (11725865_a_at) / Fold change /veh EBF3 (11725865_a_at) / RFU CAMK2N1 (11719241_x_at) / Fold change /veh CAMK2N1 (11719241_x_at) / RFU C5orf56 (11738088_a_at) / Fold change /veh C5orf56 (11738088_a_at) / RFU OLFML3 (11715873_a_at) / Fold change /veh OLFML3 (11715873_a_at) / RFU LOC100653217 /// NTM (11731650_a_at) / Fold change /veh LOC100653217 /// NTM (11731650_a_at) / RFU MAPK11 (11762145_a_at) / Fold change /veh MAPK11 (11762145_a_at) / RFU FIZ1 (11724087_x_at) / Fold change /veh FIZ1 (11724087_x_at) / RFU OASL (11726364_x_at) / Fold change /veh OASL (11726364_x_at) / RFU SOX15 (11748057_x_at) / Fold change /veh SOX15 (11748057_x_at) / RFU CD79A (11719716_a_at) / Fold change /veh CD79A (11719716_a_at) / RFU HIST1H1D (11736915_at) / Fold change /veh HIST1H1D (11736915_at) / RFU CASKIN2 (11723855_a_at) / Fold change /veh CASKIN2 (11723855_a_at) / RFU LOC730098 (11760151_x_at) / Fold change /veh LOC730098 (11760151_x_at) / RFU OR4N2 (11742367_at) / Fold change /veh OR4N2 (11742367_at) / RFU PRRT2 (11749266_a_at) / Fold change /veh PRRT2 (11749266_a_at) / RFU SNX32 (11753110_a_at) / Fold change /veh SNX32 (11753110_a_at) / RFU CDHR5 (11726645_a_at) / Fold change /veh CDHR5 (11726645_a_at) / RFU RCAN1 (11760418_a_at) / Fold change /veh RCAN1 (11760418_a_at) / RFU FAM167A (11723789_a_at) / Fold change /veh FAM167A (11723789_a_at) / RFU FAM26E (11764081_at) / Fold change /veh FAM26E (11764081_at) / RFU ISYNA1 (11749810_s_at) / Fold change /veh ISYNA1 (11749810_s_at) / RFU ACY1 (11761880_at) / Fold change /veh ACY1 (11761880_at) / RFU 11764098_at / Fold change /veh 11764098_at / RFU SAMD14 (11745864_x_at) / Fold change /veh SAMD14 (11745864_x_at) / RFU NPB (11741838_a_at) / Fold change /veh NPB (11741838_a_at) / RFU TMPRSS6 (11731388_a_at) / Fold change /veh TMPRSS6 (11731388_a_at) / RFU KRTAP10-2 (11738614_at) / Fold change /veh KRTAP10-2 (11738614_at) / RFU ARHGAP8 /// PRR5-ARHGAP8 (11727945_x_at) / Fold change /veh ARHGAP8 /// PRR5-ARHGAP8 (11727945_x_at) / RFU KRTAP5-7 /// NADSYN1 (11734609_at) / Fold change /veh KRTAP5-7 /// NADSYN1 (11734609_at) / RFU RASL12 (11751679_a_at) / Fold change /veh RASL12 (11751679_a_at) / RFU CDKN2B (11736163_a_at) / Fold change /veh CDKN2B (11736163_a_at) / RFU PRF1 (11729649_at) / Fold change /veh PRF1 (11729649_at) / RFU, ZNF638 /// ZNF638-IT1 / Fold change vs veh, ZNF638 /// ZNF638-IT1 / RFU, PANK3 / Fold change vs veh, PANK3 / RFU, SH3YL1 / Fold change vs veh, SH3YL1 / RFU, ZEB2 / Fold change vs veh, ZEB2 / RFU, NRIP1 / Fold change vs veh, NRIP1 / RFU, PTTG1IP / Fold change vs veh, PTTG1IP / RFU, CAPN2 / Fold change vs veh, CAPN2 / RFU, MED14 / Fold change vs veh, MED14 / RFU, SNORA58 / Fold change vs veh, SNORA58 / RFU, C1orf63 / Fold change vs veh, C1orf63 / RFU, LRRFIP1 / Fold change vs veh, LRRFIP1 / RFU, NDUFAF7 / Fold change vs veh, NDUFAF7 / RFU, SLC12A2 / Fold change vs veh, SLC12A2 / RFU, IBTK / Fold change vs veh, IBTK / RFU, ESF1 / Fold change vs veh, ESF1 / Fold change vs veh, TMEM50B / RFU, TAOK1 / Fold change vs veh, TAOK1 / RFU, ACBD3 / Fold change vs veh, ACBD3 / RFU, TMA16 / Fold change vs veh, TMA16 / RFU, RWDD3 / Fold change vs veh, RWDD3 / RFU, BCAT1 / Fold change vs veh, BCAT1 / RFU, EDEM3 / Fold change vs veh, EDEM3 / RFU, TMEM33 / Fold change vs veh, TMEM33 / RFU, WDR75 / Fold change vs veh, WDR75 / RFU, AHCTF1 / Fold change vs veh, AHCTF1 / RFU, TFRC / Fold change vs veh, TFRC / RFU, ZDHHC17 / Fold change vs veh, ZDHHC17 / RFU, NOM1 / Fold change vs veh, NOM1 / RFU, ARL8B / Fold change vs veh, ARL8B / RFU, ZBTB11 / Fold change vs veh, ZBTB11 / RFU, TAMM41 / Fold change vs veh, TAMM41 / RFU, KIAA1704 /// LOC100996395 / Fold change vs veh, KIAA1704 /// LOC100996395 / RFU, ING1 / Fold change vs veh, ING1 / RFU, TRMT61B / Fold change vs veh, TRMT61B / RFU, FUBP3 / Fold change vs veh, FUBP3 / RFU, TP53 / Fold change vs veh, TP53 / RFU, TNKS2 / Fold change vs veh, TNKS2 / RFU, ZFP14 / Fold change vs veh, ZFP14 / RFU, ACTR2 / Fold change vs veh, ACTR2 / RFU, PPP3R1 / Fold change vs veh, PPP3R1 / RFU, PIK3R1 / Fold change vs veh, PIK3R1 / RFU, HNRNPA1 / Fold change vs veh, HNRNPA1 / RFU, RNF170 / Fold change vs veh, RNF170 / RFU, ZNF28 / Fold change vs veh, ZNF28 / RFU, RNGTT / Fold change vs veh, RNGTT / RFU, OGT / Fold change vs veh, OGT / RFU, BRD1 / Fold change vs veh, BRD1 / RFU, MARS / Fold change vs veh, MARS / RFU, ZNF655 / Fold change vs veh, ZNF655 / RFU, FAHD1 / Fold change vs veh, FAHD1 / RFU, BDP1 / Fold change vs veh, BDP1 / RFU, LRRCC1 / Fold change vs veh, LRRCC1 / RFU, ARID1A / Fold change vs veh, ARID1A / RFU, ZNF146 / Fold change vs veh, ZNF146 / RFU, ZNF330 / Fold change vs veh, ZNF330 / RFU, GPN3 / Fold change vs veh, GPN3 / RFU, C9orf123 / Fold change vs veh, C9orf123 / RFU, N4BP2L2 / Fold change vs veh, N4BP2L2 / RFU, ARFIP1 / Fold change vs veh, ARFIP1 / RFU, FAM179B / Fold change vs veh, FAM179B / RFU, BCL10 / Fold change vs veh, BCL10 / RFU, UHRF1BP1L / Fold change vs veh, UHRF1BP1L / RFU, BET1 / Fold change vs veh, BET1 / RFU, CNOT2 / Fold change vs veh, CNOT2 / RFU, ZNF268 / Fold change vs veh, ZNF268 / Fold change vs veh, ZNF507 / RFU, DGCR2 / Fold change vs veh, DGCR2 / RFU, WDSUB1 / Fold change vs veh, WDSUB1 / Fold change vs veh, HSP90B1 /// MIR3652 / RFU, ADSS / Fold change vs veh, ADSS / RFU, GK / Fold change vs veh, GK / RFU, ZNF148 / Fold change vs veh, ZNF148 / RFU, TAF9 / Fold change vs veh, TAF9 / RFU, SLC1A5 / Fold change vs veh, SLC1A5 / RFU, SLMO2 / Fold change vs veh, SLMO2 / RFU, ABCC4 / Fold change vs veh, ABCC4 / RFU, LOC101060439 /// RAP1B / Fold change vs veh, LOC101060439 /// RAP1B / RFU, RFX7 / Fold change vs veh, RFX7 / RFU, GTPBP10 / Fold change vs veh, GTPBP10 / RFU, CNEP1R1 / Fold change vs veh, CNEP1R1 / RFU, BIVM-ERCC5 /// ERCC5 / Fold change vs veh, BIVM-ERCC5 /// ERCC5 / RFU, ILF3 / Fold change vs veh, ILF3 / RFU 11762660_at / Fold change /veh 11762660_at / RFU VCAN (11757783_s_at) / Fold change /veh VCAN (11757783_s_at) / RFU DDX43 (11728927_at) / Fold change /veh DDX43 (11728927_at) / RFU KRT8 (11758188_x_at) / Fold change /veh KRT8 (11758188_x_at) / RFU NKD1 (11759106_at) / Fold change /veh NKD1 (11759106_at) / RFU SRD5A1 (11742802_a_at) / Fold change /veh SRD5A1 (11742802_a_at) / RFU TPSAB1 /// TPSB2 (11721975_s_at) / Fold change /veh TPSAB1 /// TPSB2 (11721975_s_at) / RFU GSTM3 (11746129_a_at) / Fold change /veh GSTM3 (11746129_a_at) / RFU IL23R (11737362_x_at) / Fold change /veh IL23R (11737362_x_at) / RFU TMEM51 (11727254_a_at) / Fold change /veh TMEM51 (11727254_a_at) / RFU PIWIL2 (11732686_x_at) / Fold change /veh PIWIL2 (11732686_x_at) / RFU ORM1 (11744905_x_at) / Fold change /veh ORM1 (11744905_x_at) / RFU CCDC152 (11743942_at) / Fold change /veh CCDC152 (11743942_at) / RFU ECM1 (11717891_a_at) / Fold change /veh ECM1 (11717891_a_at) / RFU IL23R (11748794_a_at) / Fold change /veh IL23R (11748794_a_at) / RFU TNFAIP8L3 (11732012_x_at) / Fold change /veh TNFAIP8L3 (11732012_x_at) / RFU MBOAT4 (11741988_at) / Fold change /veh MBOAT4 (11741988_at) / RFU 11764193_at / Fold change /veh 11764193_at / RFU TMEM53 (11763286_at) / Fold change /veh TMEM53 (11763286_at) / RFU MAGEB2 (11727129_at) / Fold change /veh MAGEB2 (11727129_at) / RFU TMEM200A (11744735_a_at) / Fold change /veh TMEM200A (11744735_a_at) / RFU CCDC152 (11751479_a_at) / Fold change /veh CCDC152 (11751479_a_at) / RFU FAM211A (11726209_a_at) / Fold change /veh FAM211A (11726209_a_at) / RFU RGS16 (11746705_a_at) / Fold change /veh RGS16 (11746705_a_at) / RFU VCAN (11755009_s_at) / Fold change /veh VCAN (11755009_s_at) / RFU RHOB (11743442_s_at) / Fold change /veh RHOB (11743442_s_at) / RFU RGS16 (11720943_a_at) / Fold change /veh RGS16 (11720943_a_at) / RFU RGS16 (11720944_at) / Fold change /veh RGS16 (11720944_at) / RFU, VPS4B / Fold change vs veh, VPS4B / RFU, CREB1 / Fold change vs veh, CREB1 / RFU, DNAJC13 / Fold change vs veh, DNAJC13 / RFU, GNAQ / Fold change vs veh, GNAQ / RFU, CDK5R1 / Fold change vs veh, CDK5R1 / RFU, ZRANB3 / Fold change vs veh, ZRANB3 / RFU, CUL4A / Fold change vs veh, CUL4A / RFU, CCNY / Fold change vs veh, CCNY / RFU, UFL1 / Fold change vs veh, UFL1 / RFU, COG3 / Fold change vs veh, COG3 / RFU, DIAPH2 / Fold change vs veh, DIAPH2 / RFU, SKA2 / Fold change vs veh, SKA2 / RFU, AFF3 / Fold change vs veh, AFF3 / RFU, LMF1 / Fold change vs veh, LMF1 / RFU, IPO11 / Fold change vs veh, IPO11 / RFU, DFFB / Fold change vs veh, DFFB / RFU, FOXP1 / Fold change vs veh, FOXP1 / RFU, CARD8 / Fold change vs veh, CARD8 / RFU, STRN3 / Fold change vs veh, STRN3 / RFU, ADK / Fold change vs veh, ADK / RFU, RASSF2 / Fold change vs veh, RASSF2 / RFU, WIPF1 / Fold change vs veh, WIPF1 / RFU, LARP1B / Fold change vs veh, LARP1B / RFU, RASA1 / Fold change vs veh, RASA1 / RFU, RB1 / Fold change vs veh, RB1 / RFU, PPFIA1 / Fold change vs veh, PPFIA1 / RFU, MAT2A / Fold change vs veh, MAT2A / RFU, CCT5 / Fold change vs veh, CCT5 / RFU, WDR92 / Fold change vs veh, WDR92 / RFU, CUX1 / Fold change vs veh, CUX1 / RFU, TTC7A / Fold change vs veh, TTC7A / RFU, TMEM135 / Fold change vs veh, TMEM135 / RFU, DEPTOR / Fold change vs veh, DEPTOR / RFU, CPM / Fold change vs veh, CPM / RFU, DNAJB6 / Fold change vs veh, DNAJB6 / RFU, CACNA2D3 / Fold change vs veh, CACNA2D3 / RFU, DTX4 / Fold change vs veh, DTX4 / RFU, TFCP2 / Fold change vs veh, TFCP2 / RFU, GMCL1 /// GMCL1P1 / Fold change vs veh, GMCL1 /// GMCL1P1 / RFU, AEBP2 / Fold change vs veh, AEBP2 / RFU, SNHG1 /// SNORD22 /// SNORD25 /// SNORD26 /// SNORD27 /// SNORD28 /// SNORD29 /// SNORD31 / Fold change vs veh, SNHG1 /// SNORD22 /// SNORD25 /// SNORD26 /// SNORD27 /// SNORD28 /// SNORD29 /// SNORD31 / Fold change (Aza/veh), C12orf56 (ProbeSet 11735607_a_at) / Fold change (ACY-1035/veh), C12orf56 (ProbeSet 11735607_a_at) / Fold change (Aza/veh), FGFR1OP (ProbeSet 11751329_s_at) / Fold change (ACY-1035/veh), FGFR1OP (ProbeSet 11751329_s_at) / Fold change (Aza/veh), VPS36 (ProbeSet 11739960_a_at) / Fold change (ACY-1035/veh), VPS36 (ProbeSet 11739960_a_at) / RFU SYPL1 (11715823_x_at) / Fold change /veh SYPL1 (11715823_x_at) / RFU IGFBP7 (11715501_s_at) / Fold change /veh IGFBP7 (11715501_s_at) / RFU REEP3 (11722064_at) / Fold change /veh REEP3 (11722064_at) / RFU IGLL1 (11728026_x_at) / Fold change /veh IGLL1 (11728026_x_at): dose or concentration left out as unconfirmed
Settings: MV-4-11 cells, 48 hours

Nc1ncn([C@@H]2O[C@H](CO)[C@@H](O)[C@H]2O)c(=O)n1 [azacitidine] was tested, and the “RFU SAMD14 (11745864_x_at)” value was 17.52 RFU.
